Test results from ChEMBL document CHEMBL4251584, “Xanthine oxidase inhibitory activity of natural and hemisynthetic flavonoids from Gardenia oudiepe (Rubiaceae) in vitro and molecular docking studies” (Eur J Med Chem, 2018).

Experiments:
[1] = molecular target: T1, Xanthine dehydrogenase/oxidase (Bos taurus, UniProt P80457); assay: Inhibition of bovine milk xanthine oxidase using xanthine as substrate preincubated for 15 mins followed by substrate addition measured after 30 mins by UV-VIS spectrophotometric analysis; settings: for inhibition (INH): cattle, 0.5 h
T1 sequence (P80457 whole entry): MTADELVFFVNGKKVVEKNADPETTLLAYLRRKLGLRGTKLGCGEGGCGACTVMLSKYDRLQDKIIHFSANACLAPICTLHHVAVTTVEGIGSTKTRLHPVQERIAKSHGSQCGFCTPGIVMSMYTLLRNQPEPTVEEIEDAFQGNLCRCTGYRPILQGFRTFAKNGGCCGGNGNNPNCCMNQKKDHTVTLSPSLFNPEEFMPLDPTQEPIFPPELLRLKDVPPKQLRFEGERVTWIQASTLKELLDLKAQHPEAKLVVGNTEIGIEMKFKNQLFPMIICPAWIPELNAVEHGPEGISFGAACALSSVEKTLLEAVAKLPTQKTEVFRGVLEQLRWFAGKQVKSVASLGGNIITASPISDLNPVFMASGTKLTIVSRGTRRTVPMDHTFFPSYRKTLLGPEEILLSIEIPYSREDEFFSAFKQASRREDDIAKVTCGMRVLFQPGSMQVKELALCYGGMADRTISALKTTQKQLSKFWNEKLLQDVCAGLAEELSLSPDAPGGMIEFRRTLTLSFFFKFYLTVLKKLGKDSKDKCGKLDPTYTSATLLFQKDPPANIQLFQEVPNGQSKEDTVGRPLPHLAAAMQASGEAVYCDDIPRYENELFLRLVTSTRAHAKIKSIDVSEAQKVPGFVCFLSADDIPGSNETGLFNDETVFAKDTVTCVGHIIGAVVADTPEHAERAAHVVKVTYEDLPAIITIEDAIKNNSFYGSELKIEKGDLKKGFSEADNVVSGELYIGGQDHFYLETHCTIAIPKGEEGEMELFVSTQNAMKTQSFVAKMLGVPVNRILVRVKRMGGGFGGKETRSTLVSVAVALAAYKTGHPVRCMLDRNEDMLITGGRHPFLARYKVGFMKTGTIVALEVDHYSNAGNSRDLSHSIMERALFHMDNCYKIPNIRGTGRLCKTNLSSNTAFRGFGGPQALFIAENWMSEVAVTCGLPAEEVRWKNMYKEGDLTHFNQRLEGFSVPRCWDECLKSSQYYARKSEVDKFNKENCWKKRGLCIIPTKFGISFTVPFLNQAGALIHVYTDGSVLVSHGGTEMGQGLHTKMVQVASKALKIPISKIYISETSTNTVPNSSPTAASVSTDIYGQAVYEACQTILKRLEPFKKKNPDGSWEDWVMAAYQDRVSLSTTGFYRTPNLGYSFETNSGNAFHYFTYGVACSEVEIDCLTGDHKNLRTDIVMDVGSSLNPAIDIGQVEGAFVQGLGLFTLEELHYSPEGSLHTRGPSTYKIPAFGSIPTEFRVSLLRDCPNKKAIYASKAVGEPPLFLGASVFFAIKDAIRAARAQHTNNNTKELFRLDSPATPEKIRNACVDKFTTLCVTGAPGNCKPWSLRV

[2] = molecular target: T1, Xanthine dehydrogenase/oxidase; assay: Potency index, ratio of IC50 for allopurinol to IC50 for test compound for inhibition of bovine milk xanthine oxidase using xanthine as substrate preincubated for 15 mins followed by substrate addition measured after 30 mins by UV-VIS spectrophotometric analysis; settings: cattle, 0.5 h

| Compound | IC50 [1] | inhibition (INH) [1] | Ratio IC50 [2] |
| --- | --- | --- | --- |
| COc1cc(-c2oc3cc(O)c(OC)c(O)c3c(=O)c2OC)cc(O)c1OC | 6.95 µM | Dose-dependent effect |  |
| COc1cc(-c2oc3cc(O)cc(O)c3c(=O)c2OC)cc(O)c1OC | 0.09 µM | Dose-dependent effect | 3 |
| COc1cc(O)c2c(=O)c(OC)c(-c3cc(O)c(OC)c(OC)c3)oc2c1 | 21 µM | Dose-dependent effect |  |
| COc1cc(-c2oc3cc(O)c(OC)c(O)c3c(=O)c2OC)cc(OC)c1OC | 4.54 µM | Dose-dependent effect |  |
| COc1ccc(-c2oc3cc(OC)cc(O)c3c(=O)c2OC)cc1 | 9.79 µM | Dose-dependent effect |  |
| COc1c(-c2ccc(O)cc2)oc2cc(O)cc(O)c2c1=O [ISOKAEMPFERIDE] | 0.004 µM | Dose-dependent effect | 63 |
| COc1ccc(-c2oc3cc(O)c(OC)c(O)c3c(=O)c2OC)cc1 [SANTIN] | 0.22 µM | Dose-dependent effect |  |
| COc1ccc(-c2oc3cc(OC)c(OC)c(O)c3c(=O)c2OC)cc1 | 14.9 µM | Dose-dependent effect |  |
| COc1c(O)cc2oc(-c3ccc(O)cc3)c(OC)c(=O)c2c1O [3,6-DIMETHOXY KAEMPFEROL] | 0.05 µM | Dose-dependent effect | 5 |
